The source of these data is paper PMC10649247, “Rapid Colloidal Gold Immunoassay for Pharmacokinetic Evaluation of Vancomycin in the Cerebrospinal Fluid and Plasma of Beagle Dogs” (Sensors (Basel, Switzerland), 2023).

The test system of series [1] is VAN antibodies (monoclonal antibodies derived from mouse ascites). As to the kind of experiment: Colloidal gold competitive immunoassay test strip (calibration curve and cross-reactivity). Format: binding. The following applies: for CR (%) = [IC50 of VAN/IC50 of the tested compound] × 100%: cross-reactivity of the colloidal gold test strip; for IC50 (ng/mL), cross-reactivity test: compounds at 0, 0.1, 1, 10, 100, 1000 and 10,000 ng/mL. As to the method: Colloidal gold nanoparticles, integral for inducing a visible color change at the test line of the assay strips, were synthesized by boiling 100 mL of a 0.01% HAuCl4 aqueous solution, followed by the addition of 1% sodium citrate aqueous solution [46, 47, 48]. […] Subsequently, VAN antibodies were conjugated to these gold nanoparticles. The VAN antibodies used were monoclonal antibodies derived from mouse ascites with a molecular weight of 150 kD. They were purchased from Shenzhen KeJie Industrial Development Co., Ltd. (Shenzhen, China). The efficacy of this conjugation relied on a trifecta of forces: ionic attractions between the negatively charged gold particles and the positively charged proteins, hydrophobic interactions, and sulfur bonds, particularly from thiol groups that linked two regions of the Fc segment of the antibody to the gold surface.
A sequence of critical steps must be followed for fabricating colloidal gold immunochromatographic test strips. Initially, a substrate, typically comprising paper or a film, was precoated with antibodies specifically tailored for detecting the target molecule. Subsequently, colloidal gold nanoparticles were synthesized by reducing gold salts and coupled with antibodies. This coupling was facilitated by the combination of ionic, hydrophobic, and sulfur bond interactions. The resultant antibody-labeled colloidal gold solution was then applied to the designated test line area on the substrate. Then, a control line was established to validate the operational integrity of the strip. Following these applications, the strip underwent a drying process, was trimmed to manageable dimensions, and was hermetically sealed in protective packaging to mitigate the risk of environmental contamination.
The intensity of the color on the test line indicated the signal value. We quantified this signal using a smartphone camera in combination with the ImageJ software (Fiji ImageJ for Mac, 2.3.0 version). […] We used ImageJ to extract the gray values from lines drawn perpendicular to both the control and test lines. […] Therefore, the effective signal, represented as B, is determined by the absolute difference in gray value between the test line and its adjacent area.
The test line is coated with a competitive VAN–BSA antigen, and the control line is coated with […]. Upon application of the sample to the sample pad, the sample flows through the colloidal gold pad to interact with the gold-labeled antibodies. It then progresses through the test and control lines before being absorbed into the absorbent paper. The appearance of a visible line in the test area signifies a negative result for VAN (Figure 1(b1)). […] Regardless of the presence or absence of VAN, a red control line should always appear when the test is operating correctly. Otherwise, the results are invalid. Figure 1c depicts the four scenarios that may arise during testing.
Under optimized assay conditions, we used in-house-prepared VAN standard samples to validate the performance metrics of the test strips. The concentrations of the standard samples were 0, 1, 2, 4, 8, 16, 32, 64, 128, 256, 512, and 1024 ng/mL. For the analysis, we applied 4–5 drops of each sample onto the test strips and allowed them to air-dry for 10 min. We observed an inverse correlation between the VAN concentration and the test line signal intensity. We then proceeded to construct a calibration curve to elucidate the correlation between the optical signals (designated as B/B0) and the respective VAN concentrations. In this context, B represents the optical signals for each standard concentration of VAN, while B0 signifies the optical signal at a zero-concentration baseline. […]

Series [2] can be described thus: Pharmacokinetic study of VAN in plasma of beagle dogs (LC-MS). Format: in vivo. The conditions noted are these: single intravenous dose 12 mg/kg, average of three dogs. As for the experimental part:
(§1) Animal Dosing and Sample Collection: The choice of using beagle dogs for the pharmacokinetic studies of VAN in CSF and plasma is driven by their physiological similarities to humans, which make them a suitable model for predicting human pharmacokinetics. Three male beagle dogs, each weighing approximately 11 kg and aged 10 months, were utilized for pharmacokinetic studies. Both the acquisition of the beagle dogs and the sample collection were conducted by Beijing Sinogenetic Biotechnology Co., Ltd. (Beijing, China). The animal protocols employed for this research were reviewed and approved by Beijing Sinogenetic Biotechnology Co., Ltd. (XNY-20230524001). The beagle dogs were anesthetized and subsequently administered a single intravenous dose of a pre-prepared 50 mg/mL VAN hydrochloride solution at a dosage level of 12 mg/kg, with the injection time lasting approximately 2–3 s. CSF and plasma samples were collected at predetermined time points: predose (0 min) and postdose at intervals of 5 min, 10 min, 30 min, 1 h, 2 h, 4 h, 8 h, and 24 h. […]
(§2) An HPLC–MS method was established to precisely quantify VAN levels in CSF and plasma samples collected from beagle dogs. […] The methodological rigor ensured a high degree of specificity and sensitivity in VAN quantification, effectively fulfilling the objectives of this study.

A short description of series [3]: Pharmacokinetic study of VAN in CSF of beagle dogs (LC-MS). Format: in vivo. The conditions noted are these: single intravenous dose 12 mg/kg, average of three dogs. As to the method:
as §1, §2

Where a name gives a salt, the structure may show the parent alone.

Take `NCC[C@H](O)C(=O)N[C@@H]1C[C@H](N)[C@@H](O[C@H]2O[C@H](CN)[C@@H](O)[C@H](O)[C@H]2O)[C@H](O)[C@H]1O[C@H]1O[C@H](CO)[C@@H](O)[C@H](N)[C@H]1O` [Amikacin, amikacin]: the “CR (%) = [IC50 of VAN/IC50 of the tested compound] × 100%” value (“CR (%) =” below) in series [1] is given as less than 0.5%. The “IC50 (ng/mL), cross-reactivity test” value in series [1] (test strip) was >10^4 ng/mL.
As to `CN[C@H]1C(=O)N[C@@H]2Cc3ccc(cc3)Oc3cc4cc(c3O[C@@H]3O[C@H](C(=O)O)[C@@H](O)[C@H](O)[C@H]3NC(=O)CCCCCCCCC(C)C)Oc3ccc(cc3Cl)[C@@H](O)[C@@H]3NC(=O)[C@H](NC(=O)[C@@H]4NC(=O)[C@@H](NC2=O)c2cc(cc(O)c2Cl)Oc2cc1ccc2O)c1ccc(O)c(c1)-c1c(O[C@H]2O[C@H](CO)[C@@H](O)[C@H](O)[C@@H]2O)cc(O)cc1[C@@H](C(=O)NCCCN(C)C)NC3=O` [Dalbavancin, dalbavancin], the “CR (%) =” value in series [1] is reported as less than 0.5%. Further, the “IC50 (ng/mL), cross-reactivity test” value in series [1] (test strip) was >10^4 ng/mL.
`C[C@@H](O)[C@H]1C(=O)N2C(C(=O)O)=C(S[C@@H]3CN[C@H](C(=O)N(C)C)C3)[C@H](C)[C@H]12` [Meropenem, meropenem]: the “CR (%) =” value in series [1] was less than 0.5%. In series [1] (test strip), the “IC50 (ng/mL), cross-reactivity test” value is recorded as >10^4 ng/mL.
For the compound `CN[C@H](CC(C)C)C(=O)N[C@H]1C(=O)N[C@@H](CC(N)=O)C(=O)N[C@H]2C(=O)N[C@H]3C(=O)N[C@H](C(=O)N[C@H](C(=O)O)c4cc(O)cc(O)c4-c4cc3ccc4O)[C@H](O[C@H]3C[C@](C)(N)[C@@H](O)[C@H](C)O3)c3ccc(c(Cl)c3)Oc3cc2cc(c3O[C@@H]2O[C@H](CO)[C@@H](O)[C@H](O)[C@H]2O[C@H]2C[C@](C)(NCc3ccc(-c4ccc(Cl)cc4)cc3)[C@@H](O)[C@H](C)O2)Oc2ccc(cc2Cl)[C@H]1O` [Oritavancin, oritavancin], the “CR (%) =” value in series [1] is listed as less than 0.5%. In addition, the “IC50 (ng/mL), cross-reactivity test” value in series [1] (test strip) is >10^4 ng/mL.
As for `CCCCCCCCCCNCCN[C@@]1(C)C[C@H](O[C@H]2[C@H](Oc3c4cc5cc3Oc3ccc(cc3Cl)[C@@H](O)[C@@H](NC(=O)[C@@H](CC(C)C)NC)C(=O)N[C@@H](CC(N)=O)C(=O)N[C@H]5C(=O)N[C@H]3C(=O)N[C@H](C(=O)N[C@H](C(=O)O)c5cc(O)c(CNCP(=O)(O)O)c(O)c5-c5cc3ccc5O)[C@H](O)c3ccc(c(Cl)c3)O4)O[C@H](CO)[C@@H](O)[C@@H]2O)O[C@@H](C)[C@H]1O` [Telavancin, telavancin], in series [1], the “CR (%) =” value is recorded as less than 0.5%. For the same compound, the “IC50 (ng/mL), cross-reactivity test” value in series [1] (test strip) is on record as >10^4 ng/mL.
`CN[C@H](CC(C)C)C(=O)N[C@H]1C(=O)N[C@@H](CC(N)=O)C(=O)N[C@H]2C(=O)N[C@H]3C(=O)N[C@H](C(=O)N[C@H](C(=O)O)c4cc(O)cc(O)c4-c4cc3ccc4O)[C@H](O)c3ccc(c(Cl)c3)Oc3cc2cc(c3O[C@@H]2O[C@H](CO)[C@@H](O)[C@H](O)[C@H]2O[C@H]2C[C@](C)(N)[C@H](O)[C@H](C)O2)Oc2ccc(cc2Cl)[C@H]1O` [VAN, Vancomycin hydrochloride]: the “CR (%) =” value in series [1] turned out to be 100%. In addition, the “LOD, concentration of VAN giving a 10% inhibition of the maximum absorbance” value in series [1] (test strip calibration curve, read after 10 min, n = 3) came to 10.3 ng/mL. The “inhibitory concentration 50% (IC50) from the calibration curve (B/B0 against VAN concentration)” value in series [1] (test strip, standard samples 0-1024 ng/mL, read after 10 min, smartphone/ImageJ gray value, n = 3) was 0.0445 µg/mL. Besides, the “peak concentration of VAN in plasma” value in series [2] amounted to 40 µg/mL. Also, the “concentration of VAN in plasma within ~4 h” value in series [2] (~4 h post dose) is “below 1 µg/mL”. Moreover, in series [3], the “time at which VAN concentration in CSF reaches its maximum” value was ~ 2 h.
For teicoplanin, the “CR (%) =” value in series [1] is listed as less than 0.5%. For the same compound, the “IC50 (ng/mL), cross-reactivity test” value in series [1] (test strip) is >10^4 ng/mL.
